Data: ChEMBL document CHEMBL1201862, “PubChem BioAssay data set” (2004)
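Exposure lasted 48 hours, with cells grown in 96-well plates and compounds tested at five concentrations. At the GI50, growth is halved.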 The source made the active and inactive calls. Cut-off read from the data, not from the text of the source: active = GI50 up to about 1.1 µM and inactive = higher.

Key:
Assay in all cases: NCI-60 cell line screen, 48 h
HCC 2998 = test system: HCC 2998
A498 = test system: A498
HL-60 = test system: HL-60
MOLT-4 = test system: MOLT-4
SK-MEL-2 = test system: SK-MEL-2
NCI-H522 = test system: NCI-H522
UACC-257 = test system: UACC-257
RPMI-8226 = test system: RPMI-8226
MDA-MB-231 = test system: MDA-MB-231
U-251 = test system: U-251
Hs-578T = test system: Hs-578T
SK-MEL-28 = test system: SK-MEL-28
HOP-62 = test system: HOP-62
SF-295 = test system: SF-295
UACC-62 = test system: UACC-62
IGROV-1 = test system: IGROV-1
Malme-3M = test system: Malme-3M
T47D = test system: T47D
CCRF-CEM = test system: CCRF-CEM
SN12C = test system: SN12C
HCT-15 = test system: HCT-15
CAKI-1 = test system: CAKI-1
M14 = test system: M14
NCI-H23 = test system: NCI-H23
NCI/ADR-RES = test system: NCI/ADR-RES
SW-620 = test system: SW-620
ACHN = test system: ACHN
KM12 = test system: KM12
SF-539 = test system: SF-539
K562 = test system: K562
SR = test system: SR
OVCAR-3 = test system: OVCAR-3
NCI-H460 = test system: NCI-H460
786-0 = test system: 786-0
DU-145 = test system: DU-145
EKVX = test system: EKVX
SNB-19 = test system: SNB-19
SNB-75 = test system: SNB-75
A549 = test system: A549
SF-268 = test system: SF-268
OVCAR-8 = test system: OVCAR-8
UO-31 = test system: UO-31
COLO 205 = test system: COLO 205
HT-29 = test system: HT-29
PC-3 = test system: PC-3
OVCAR-5 = test system: OVCAR-5
BT-549 = test system: BT-549
MDA-N = test system: MDA-N
HCT-116 = test system: HCT-116
MCF7 = test system: MCF7
LOX IMVI = test system: LOX IMVI
SK-MEL-5 = test system: SK-MEL-5
TK-10 = test system: TK-10
SK-OV-3 = test system: SK-OV-3
NCI-H226 = test system: NCI-H226
MDA-MB-435 = test system: MDA-MB-435
RXF 393 = test system: RXF 393
OVCAR-4 = test system: OVCAR-4
HOP-92 = test system: HOP-92

Measured: GI50

COc1ccc(OC2OC(CO)C(O)C(O)C2O)cc1 (stereo not drawn)
inactive: HCC 2998 > 100 µM | A498 > 100 µM | HL-60 > 100 µM | MOLT-4 > 100 µM | SK-MEL-2 > 100 µM | NCI-H522 > 100 µM | UACC-257 > 100 µM | RPMI-8226 > 100 µM | MDA-MB-231 > 100 µM | U-251 > 100 µM | Hs-578T > 100 µM | SK-MEL-28 > 100 µM | HOP-62 > 100 µM | SF-295 > 100 µM | UACC-62 > 100 µM | IGROV-1 > 100 µM | Malme-3M > 100 µM | T47D > 100 µM | CCRF-CEM > 100 µM | SN12C > 100 µM | CAKI-1 > 100 µM | M14 > 100 µM | NCI-H23 > 100 µM | NCI/ADR-RES > 100 µM | SW-620 > 100 µM | ACHN > 100 µM | KM12 > 100 µM | SF-539 > 100 µM | K562 > 100 µM | SR > 100 µM | OVCAR-3 > 100 µM | NCI-H460 > 100 µM | 786-0 > 100 µM | DU-145 > 100 µM | EKVX > 100 µM | SNB-19 > 100 µM | SNB-75 > 100 µM | A549 > 100 µM | SF-268 > 100 µM | OVCAR-8 > 100 µM | UO-31 > 100 µM | COLO 205 > 100 µM | HT-29 > 100 µM | PC-3 > 100 µM | OVCAR-5 > 100 µM | BT-549 > 100 µM | MDA-N > 100 µM | HCT-116 > 100 µM | MCF7 > 100 µM | LOX IMVI > 100 µM | SK-MEL-5 > 100 µM | TK-10 > 100 µM | SK-OV-3 > 100 µM | NCI-H226 > 100 µM | MDA-MB-435 > 100 µM
> 100 µM: HCT-15

O=[N+]([O-])c1ccc2c(c1)Cc1cc(/N=C/c3ccc4c(c3)OCO4)ccc1-2
inactive: A498 > 100 µM | HL-60 > 100 µM | MOLT-4 > 100 µM | SK-MEL-2 > 100 µM | NCI-H522 > 100 µM | RXF 393 > 100 µM | UACC-257 > 100 µM | RPMI-8226 > 100 µM | MDA-MB-231 > 100 µM | U-251 > 100 µM | Hs-578T 80 µM | SK-MEL-28 > 100 µM | HOP-62 > 100 µM | SF-295 > 100 µM | UACC-62 > 100 µM | IGROV-1 > 100 µM | Malme-3M > 100 µM | T47D > 100 µM | CCRF-CEM 61.9 µM | SN12C > 100 µM | CAKI-1 > 100 µM | M14 > 100 µM | NCI-H23 > 100 µM | NCI/ADR-RES > 100 µM | SW-620 > 100 µM | OVCAR-4 > 100 µM | ACHN > 100 µM | KM12 > 100 µM | SF-539 > 100 µM | K562 > 100 µM | OVCAR-3 > 100 µM | NCI-H460 > 100 µM | 786-0 > 100 µM | DU-145 > 100 µM | HOP-92 > 100 µM | EKVX 57.1 µM | SNB-19 > 100 µM | SNB-75 89.7 µM | A549 > 100 µM | SF-268 > 100 µM | OVCAR-8 > 100 µM | UO-31 > 100 µM | COLO 205 > 100 µM | HT-29 > 100 µM | PC-3 > 100 µM | OVCAR-5 > 100 µM | BT-549 > 100 µM | MDA-N > 100 µM | HCT-116 > 100 µM | MCF7 > 100 µM | LOX IMVI > 100 µM | SK-MEL-5 > 100 µM | TK-10 > 100 µM | SK-OV-3 > 100 µM | NCI-H226 > 100 µM | MDA-MB-435 > 100 µM
> 100 µM: HCT-15
